Source: patent US20160228484A1, “TOMATO POWDER-BASED COMPOSITION” (MEDIAPHARMA S.R.L., priority 2013, published 2016)

Key:
Assay type in all cases: in vivo, mouse
TRAMP mice = assay: Kaplan-Meier survival of TRAMP mice fed fortified diets; settings: Lycopene treated, not significantly different from Control Diet (11%), P=0.384, unpublished observations
Excerpt: In man, early prostate tumorigenesis appears to be associated with a dysplasia that starts with proliferative inflammatory atrophy which may progress to low-grade Prostatic Intraepithelial Neoplasia (PIN), to high-grade PIN, to primary cancer, to metastatic cancer, and to hormone refractory cancer after hormonal treatment (23,24). Transgenic adenocarcinoma of the mouse prostate (TRAMP) is a model in which the progression of prostate cancer mirrors the stages of the human form, from PIN to undifferentiated, androgen independent tumor (25). Expression od the SV40 early genes driven by the prostate-specific promoter probasin leads to prostate cell transformation and all TRAMP mice develop prostate cancer spontaneously. This model, therefore, is regularly used to assess chemoprevention of prostate cancer (22).
In a recent paper (36), we reported that a tomato diet (Control Diet enriched with 10% of a “tomato powder”, whose composition is reported in Table 1), increased TRAMP mice survival.

VEGF = VEGF serum levels during different diets in TRAMP mice; settings: FIG. 4; diet fortified 10%; two-ways ANOVA; RED007 P<0.0001; Lycopene P=0.204
Excerpt: FIG. 4: VEGF serum levels during different diets. Values represent mean ±SD(n8mice). […] RED007 may be also designated “Lycoprozen”. The two terms are interchangeable herein.
FIG. 6: VEGF serum levels during different diets. Values represent mean±SD(n8mice). The control diet was fortified with a 10% mixture of A and B components. The two components were mixed according to different Acomponent/Bcomponent ratios (w/w), i.e. 99.5:0.5, 98.0:2.0 (RED007 diet), and 96.0:4.0, respectively.

IL6 = IL6 serum levels during different diets in TRAMP mice; settings: FIG. 5; diet fortified 10%; two-ways ANOVA; RED007 P<0.0001; Lycopene P=0.314
Excerpt: FIG. 5: IL6 serum levels during different diets. Values represent mean±SD(n8mice).
FIG. 7: IL6 serum levels during different diets. Values represent mean ±SD(n8mice). The control diet was fortified with a 10% mixture of A and B components. The two components were mixed according to different Acomponent/Bcomponent ratios (w/w), i.e. 99.5:0.5, 98.0:2.0 (RED007 diet), and 96.0:4.0, respectively.

## CC(C)=CCC/C(C)=C/C=C/C(C)=C/C=C/C(C)=C/C=C/C=C(C)/C=C/C=C(C)/C=C/C=C(\C)CCC=C(C)C [Lycopene, lycopene]
TRAMP mice
  survival proportion: 17%
VEGF
  VEGF serum levels compared to Control Diet: did not significantly modify
IL6
  IL6 serum levels compared to Control Diet: did not significantly modify
